Measured values: patent US4820694A, “Modifications of 3-O-demethylmycinose in macrocin and lactenocin” (priority 1986, dated 1989)
Converted amounts (≈) assume the structure as drawn. Like-named read-outs stand apart in the source and are kept apart here.

What was measured:
Escherichia coli EC14 = experiment: standard agar-dilution MIC assay; assay type: cell-based; conditions: agar-dilution, read-out: MIC
Description: (§1) The MIC's in Table III were determined by standard agar-dilution assays. The MIC's in Table IV were obtained using conventional brothdilution microtiter tests.

[1] = test system: Haemophilus influenzae 76; experiment: standard agar-dilution MIC assay; assay type: cell-based; conditions: Haemophilus influenzae, 76; agar-dilution; Ampicillin-resistant strain; read-out: MIC
Description: as §1

[2] = test system: Haemophilus influenzae C.L.; experiment: standard agar-dilution MIC assay; assay type: cell-based; conditions: Haemophilus influenzae; agar-dilution; Ampicillin-sensitive strain; read-out: MIC
Description: as §1

[3] = test system: Klebsiella pneumoniae X68; experiment: standard agar-dilution MIC assay; assay type: cell-based; conditions: Klebsiella pneumoniae, X68; agar-dilution; read-out: MIC
Description: as §1

[4] = test system: Pseudomonas aeruginosa X239; experiment: standard agar-dilution MIC assay; assay type: cell-based; conditions: Pseudomonas aeruginosa, X239; agar-dilution; read-out: MIC
Description: as §1

[5] = test system: Staphylococcus aureus V41; experiment: standard agar-dilution MIC assay; assay type: cell-based; conditions: Staphylococcus aureus, V41
Description: as §1

[6] = test system: Staphylococcus aureus X1.1; experiment: standard agar-dilution MIC assay; assay type: cell-based; conditions: Staphylococcus aureus, X1.1
Description: as §1

[7] = test system: Staphylococcus aureus X400; experiment: standard agar-dilution MIC assay; assay type: cell-based; conditions: Staphylococcus aureus, X400
Description: as §1

[8] = test system: Staphylococcus epidermidis 222; experiment: standard agar-dilution MIC assay; assay type: cell-based; conditions: Staphylococcus epidermidis, 222
Description: as §1

[9] = test system: Staphylococcus epidermidis EPI1; experiment: standard agar-dilution MIC assay; assay type: cell-based; conditions: Staphylococcus epidermidis, EPI1
Description: as §1

[10] = test system: Streptococcus Group D 2041; experiment: standard agar-dilution MIC assay; assay type: cell-based; conditions: GROUPD2041
Description: as §1

[11] = test system: Streptococcus Group D X66; experiment: standard agar-dilution MIC assay; assay type: cell-based; conditions: read-out: MIC
Description: as §1

[12] = test system: Streptococcus pyogenes C203; experiment: standard agar-dilution MIC assay; assay type: cell-based; conditions: Streptococcus pyogenes, C203
Description: as §1

[13] = test system: Staphylococcus aureus S13E; experiment: microbe, parasite or virus in culture; assay type: cell-based; conditions: Staphylococcus aureus, S13E
Description: as §1

[14] = test system: Streptococcus pneumoniae Park I; experiment: microbe, parasite or virus in culture; assay type: cell-based; conditions: Streptococcus pneumoniae
Description: as §1

[15] = test system: Staphylococcus epidermidis EP12; experiment: standard agar-dilution MIC assay; assay type: cell-based
Description: as §1

[16] = test system: Streptococcus Group D 9960; experiment: standard agar-dilution MIC assay; assay type: cell-based; conditions: GROUPD9960, read-out: MIC
Description: as §1

[17] = test system: Bordetella bronchiseptica; experiment: broth-dilution microtiter MIC test; assay type: cell-based; conditions: Bordetella bronchiseptica; broth-dilution microtiter; read-out: MIC
Description: as §1

[18] = test system: Mycoplasma gallisepticum 15E; experiment: broth-dilution microtiter MIC test; assay type: cell-based; conditions: Mycoplasmoides gallisepticum, 15E
Description: as §1

[19] = test system: Mycoplasma gallisepticum 29C; experiment: broth-dilution microtiter MIC test; assay type: cell-based; conditions: Mycoplasmoides gallisepticum, 29C
Description: as §1

[20] = test system: Mycoplasma gallisepticum 36H; experiment: broth-dilution microtiter MIC test; assay type: cell-based; conditions: Mycoplasmoides gallisepticum, 36H
Description: as §1

Mycoplasma hyorhinis 29E = experiment: broth-dilution microtiter MIC test; assay type: cell-based; conditions: Mycoplasma, 29E
Description: as §1

Mycoplasma synoviae 40A = experiment: broth-dilution microtiter MIC test; assay type: cell-based; conditions: Mycoplasmopsis synoviae, 40A
Description: as §1

[21] = test system: Pasteurella hemolytica 22C; experiment: broth-dilution microtiter MIC test; assay type: cell-based; conditions: Pasteurella, 22C; broth-dilution microtiter; read-out: MIC
Description: as §1

[22] = test system: Pasteurella hemolytica 23C; experiment: broth-dilution microtiter MIC test; assay type: cell-based; conditions: Pasteurella, 23C; broth-dilution microtiter; read-out: MIC
Description: as §1

[23] = test system: Pasteurella hemolytica 41D; experiment: broth-dilution microtiter MIC test; assay type: cell-based; conditions: Pasteurella, 41D; broth-dilution microtiter; read-out: MIC
Description: as §1

[24] = test system: Pasteurella multocida 17E; experiment: broth-dilution microtiter MIC test; assay type: cell-based; conditions: Pasteurella multocida, 17E; broth-dilution microtiter; Bovine isolate; read-out: MIC
Description: as §1

[25] = test system: Pasteurella multocida 22A; experiment: broth-dilution microtiter MIC test; assay type: cell-based; conditions: Pasteurella multocida, 22A; broth-dilution microtiter; read-out: MIC
Description: as §1

[26] = test system: Pasteurella multocida 40G; experiment: broth-dilution microtiter MIC test; assay type: cell-based; conditions: Pasteurella multocida, 40G; broth-dilution microtiter; read-out: MIC
Description: as §1

[27] = test system: Pasteurella multocida 60A; experiment: broth-dilution microtiter MIC test; assay type: cell-based; conditions: Pasteurella multocida, 60A; broth-dilution microtiter; Avian isolate; read-out: MIC
Description: as §1

[28] = test system: Pasteurella multocida 68C; experiment: broth-dilution microtiter MIC test; assay type: cell-based; conditions: Pasteurella multocida, 68C
Description: as §1

[29] = test system: Staphylococcus aureus 19C; experiment: broth-dilution microtiter MIC test; assay type: cell-based; conditions: Staphylococcus aureus, 19C
Description: as §1

Streptococcus sp. 19F = experiment: broth-dilution microtiter MIC test; assay type: cell-based; conditions: Streptococcus, SP.19F
Description: as §1

[30] = test system: Streptococcus pyogenes C203; experiment: protection of mice experimentally infected with S. pyogenes C203; assay type: in vivo; conditions: mice, mg/kg × 2, doses given 1 and 4 hours postinfection, read-out: ED50
How it was run: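 Activity is given as ED50, the mg/kg dose (×2) protecting half of the mice infected with S. pyogenes C203. Compound was dosed 1 and 4 h after infection.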

For `CCC1OC(=O)CC(O)C(C)C(OC2OC(C)C(O)C(N(C)C)C2O)C(CCOc2ccccc2)CC(C)C(=O)C=CC(C)=CC1COC1OC(C)C2OC(C)(C)OC2C1OC` (stereo not drawn) [Compound 57, 20-DH-20-O-Phenyl-lactenocin-3",4"-isopropylidene Ketal], the MIC (Escherichia coli EC14) was greater than 128 µg/mL, the MIC [1] was greater than 128 µg/mL and the MIC [2] was greater than 128 µg/mL. The MIC [3] was greater than 128 µg/mL, the MIC [4] was greater than 128 µg/mL and the MIC [5] was 4 µg/mL (≈ 4.57 µM). It also gave an MIC [6] of 4 µg/mL (≈ 4.57 µM), an MIC [7] of 4 µg/mL (≈ 4.57 µM) and an MIC [8] of 2 µg/mL (≈ 2.28 µM). The MIC [9] was 4 µg/mL (≈ 4.57 µM), the MIC [10] was 64 µg/mL (≈ 73.1 µM) and the MIC [11] was 32 µg/mL (≈ 36.5 µM). The MIC [12] was 2 µg/mL (≈ 2.28 µM), the MIC [13] was 4 µg/mL (≈ 4.57 µM) and the MIC [14] was 8 µg/mL (≈ 9.13 µM).

Compound `CCC1OC(=O)CC(O)C(C)C(OC2OC(C)C(OC3CC(C)(O)C(O)C(C)O3)C(N(C)C)C2OC(C)=O)C(CC=O)CC(C)C(=O)C=CC(C)=CC1COC1OC(C)C(OC(=O)CC(C)C)C(O)C1OC` (stereo not drawn) [Compound 5, 2'-O-Acetyl-4'"-O-isovaleryl-macrocin] has an MIC (Escherichia coli EC14) greater than 128 µg/mL, an MIC [1] greater than 128 µg/mL and an MIC [2] greater than 128 µg/mL. The MIC [3] was greater than 128 µg/mL, the MIC [4] was greater than 128 µg/mL and the MIC [5] was 2 µg/mL (≈ 1.95 µM). For the same compound, the MIC [6] was 2 µg/mL (≈ 1.95 µM), the MIC [7] was 4 µg/mL (≈ 3.89 µM) and the MIC [15] was 2 µg/mL (≈ 1.95 µM). It also gave an MIC [9] of 2 µg/mL (≈ 1.95 µM), an MIC [16] of 2 µg/mL (≈ 1.95 µM) and an MIC [11] of 2 µg/mL (≈ 1.95 µM). The MIC [12] was 1 µg/mL (≈ 0.973 µM), the MIC [13] was 2 µg/mL (≈ 1.95 µM) and the MIC [14] was 0.5 µg/mL (≈ 0.486 µM). The MIC [17] was greater than 50 µg/mL, the MIC [18] was 50 µg/mL (≈ 48.6 µM) and the MIC [19] was 1.56 µg/mL (≈ 1.52 µM). For the same compound, the MIC [20] was 50 µg/mL (≈ 48.6 µM), the MIC (Mycoplasma hyorhinis 29E) was 1.56 µg/mL (≈ 1.52 µM) and the MIC (Mycoplasma synoviae 40A) was 1.56 µg/mL (≈ 1.52 µM). The MIC [21] was greater than 50 µg/mL, the MIC [22] was greater than 50 µg/mL and the MIC [23] was greater than 50 µg/mL. The MIC [24] was greater than 50 µg/mL, the MIC [25] was greater than 50 µg/mL and the MIC [26] was greater than 50 µg/mL. For the same compound, the MIC [27] was greater than 50 µg/mL, the MIC [28] was 50 µg/mL (≈ 48.6 µM) and the MIC [29] was 3.12 µg/mL (≈ 3.03 µM). The MIC (Streptococcus sp. 19F) was 1.56 µg/mL (≈ 1.52 µM), the ED50 ([30]; C203, Oral) was 54.3 mg/kg and the ED50 ([30]; C203, sc, Subcutaneous) was 9.2 mg/kg.

Compound `CCC1OC(=O)CC(O)C(C)C(OC2OC(C)C(OC3CC(C)(O)C(O)C(C)O3)C(N(C)C)C2OC(C)=O)C(CC=O)CC(C)C(=O)C=CC(C)=CC1COC1OC(C)C(OC(=O)CC(C)C)C(OC(=O)CC(C)C)C1OC` (stereo not drawn) [Compound 7, 2'-O-ACETYL-3'",4'"-di-O-isovaleryl-macrocin] has an MIC (Escherichia coli EC14) greater than 128 µg/mL, an MIC [1] greater than 128 µg/mL and an MIC [2] greater than 128 µg/mL. For the same compound, the MIC [3] was greater than 128 µg/mL, the MIC [4] was greater than 128 µg/mL and the MIC [5] was 8 µg/mL (≈ 7.19 µM). For the same compound, the MIC [6] was 8 µg/mL (≈ 7.19 µM), the MIC [7] was 16 µg/mL (≈ 14.4 µM) and the MIC [15] was 8 µg/mL (≈ 7.19 µM). The MIC [9] was 8 µg/mL (≈ 7.19 µM), the MIC [16] was 8 µg/mL (≈ 7.19 µM) and the MIC [11] was 16 µg/mL (≈ 14.4 µM). For the same compound, the MIC [12] was 4 µg/mL (≈ 3.6 µM), the MIC [13] was 8 µg/mL (≈ 7.19 µM) and the MIC [14] was 2 µg/mL (≈ 1.8 µM). It also gave an MIC [17] greater than 50 µg/mL, an MIC [18] of 12.5 µg/mL (≈ 11.2 µM) and an MIC [19] of 3.12 µg/mL (≈ 2.8 µM). The MIC [20] was 50 µg/mL (≈ 44.9 µM), the MIC (Mycoplasma hyorhinis 29E) was 6.25 µg/mL (≈ 5.62 µM) and the MIC (Mycoplasma synoviae 40A) was 3.12 µg/mL (≈ 2.8 µM). It also gave an MIC [21] greater than 50 µg/mL, an MIC [22] greater than 50 µg/mL and an MIC [23] greater than 50 µg/mL. It also gave an MIC [24] greater than 50 µg/mL, an MIC [25] greater than 50 µg/mL and an MIC [26] greater than 50 µg/mL. It also gave an MIC [27] greater than 50 µg/mL, an MIC ([28]; broth-dilution microtiter, read-out: MIC) greater than 50 µg/mL and an MIC [29] of 12.5 µg/mL (≈ 11.2 µM). For the same compound, the MIC (Streptococcus sp. 19F) was 3.12 µg/mL (≈ 2.8 µM), the ED50 ([30]; C203, Oral) was 71.4 mg/kg and the ED50 ([30]; C203, sc, Subcutaneous) was greater than 10 mg/kg.
